In article PMC2580763, “Product inhibition of secreted phospholipase A2 may explain lysophosphatidylcholines' unexpected therapeutic properties” (Journal of Inflammation (London, England), 2008):

Legend:
plasma sPLA2 [1] = test: plasma sPLA2 activity of rats after subcutaneous lysoPC injection; assay type: in vivo; conditions: rat, subcutaneous 25 mg/kg, 2 hrs after injection; PDA generated in 1 hr
Description: Enzyme assays were conducted as in previous studies using a Victor 3 fluorescent reader (Perkin Elmer, Waltham, MA). The substrate was 1-palmitoyl-2-pyrenedecanoyl phosphatidylcholine ("10-pyrene"), Caymen Chemical, Ann Arbor MI) a substrate for all calcium dependent PLA2s with the exception of cPLA2 and PAF-AH (LP-PLA2). Substrate solutions were prepared in reaction buffer consisting of 50 mM tris (pH = 7.4), 0.1 M NaCl, 2 mM CaCl2, 0.25% fatty acid-free albumin. The substrate forms phospholipids vesicles in this solution [37], and upon hydrolysis, releases fluorescent 10-pyrenyldecanoic acid (PDA). Plasma samples were 10% final and mixed with lysoPCs by gentle shaking for 100 sec, or they were derived from lysoPC-injected rats. […] Kinetic parameters including the properties of lysoPC inhibitors were determined by recording the initial maximum velocities (Vo) of enzyme reactions, obtained within 2 minutes of initiation. […]
Rats were injected subcutaneously under the loose skin at the shoulders with synthetic stearoyl (n = 4) or palmitoyl (n = 4) lysoPCs (25 mg/kg) two hrs before sacrifice and compared to vehicle-injected rats (n = 8). The relative concentrations of active sPLA2 enzymes were measured in plasma samples of these animals by determining the total hydrolysis of substrate in 1 hr.

plasma sPLA2 [2] = test: sPLA2 enzyme activity in rat plasma ex vivo with added lysoPC (10-pyrene substrate); assay type: biochemical; conditions: for type of inhibition of plasma sPLA2 enzyme activity: kinetic studies, rat plasma ex vivo; for Ki / Km / Vmax: lysoPC 20 μM; for Ki: all reactions with substrates above 15 μM, read-out: Ki ± s.e.m.; for Km / Vmax: plasma 10% final
Description: (§1) Blood was obtained from the trunk of 32 female Sprague Dawley rats (200–250 g) after decapitation. Blood samples were treated with citrate-phosphate-dextrose anticoagulant (1:10, Sigma), and plasma prepared by centrifugation after which samples were frozen at -80° until used. For 16 of these animals, plasma samples were pooled from 4–6 rats for ex vivo enzyme assays. The other 16 rats received lysoPC treatments (see below). The Institutional Animal Care and Use Committee of Drexel University College of Medicine approved all specific procedures of this study. Purified group IA secreted phospholipase A2 from the venom of the Mozambique spitting cobra (Naja mossambica) was obtained from Sigma (St. Louis, MO).
(§2) Enzyme assays were conducted as in previous studies using a Victor 3 fluorescent reader (Perkin Elmer, Waltham, MA). The substrate was 1-palmitoyl-2-pyrenedecanoyl phosphatidylcholine ("10-pyrene"), Caymen Chemical, Ann Arbor MI) a substrate for all calcium dependent PLA2s with the exception of cPLA2 and PAF-AH (LP-PLA2). Substrate solutions were prepared in reaction buffer consisting of 50 mM tris (pH = 7.4), 0.1 M NaCl, 2 mM CaCl2, 0.25% fatty acid-free albumin. The substrate forms phospholipids vesicles in this solution [37], and upon hydrolysis, releases fluorescent 10-pyrenyldecanoic acid (PDA). Plasma samples were 10% final and mixed with lysoPCs by gentle shaking for 100 sec, or they were derived from lysoPC-injected rats. All enzyme reactions were initiated with the addition of the substrate solution to the sPLA2 containing samples. Kinetic parameters including the properties of lysoPC inhibitors were determined by recording the initial maximum velocities (Vo) of enzyme reactions, obtained within 2 minutes of initiation. A detailed presentation of the calculations used in our kinetic analysis has been presented. Relative fluorescent units (RFU) were converted to product concentration using a standard curve made with pyrenyldecanoic acid (Invitrogen, Eugene, OR). Individual reactions were carried out in duplicate or triplicate and kinetic curves were produced using at least 6 substrate concentrations, with lysoPC or its vehicle (PBS with 8% ethanol). Representative Lineweaver-Burk and Michaelis-Menten plots as well as nonlinear regression analyses are presented in Results. Experiments were repeated at least 4 times with similar results. […] These calculations, and Km, Vmax and R^2 were made with statistical (INSTAT) and regression software (Prism), both from Graphpad (San Diego, CA).

group IA sPLA2 = test: purified group IA sPLA2 enzyme activity in vitro with added lysoPC (10-pyrene substrate); assay type: biochemical, Naja mossambica; conditions: for type of inhibition of group IA sPLA2: lower range of substrate concentrations, added lysoPCs; for Km / Vmax: 15 nM group IA sPLA2
Description: as §1, §2

Compound	range of plasma sPLA2 activities compared with vehicle-injected control rats (plasma sPLA2 [1])	type of inhibition of plasma sPLA2 enzyme activity (plasma sPLA2 [2])	Ki (plasma sPLA2 [2])	Km (plasma sPLA2 [2])	Vmax (plasma sPLA2 [2])	type of inhibition of group IA sPLA2 (group IA sPLA2)	percent inhibition (percent reduction in Vo) (group IA sPLA2; 40 μM lysoPC preincubated with 5% albumin (> 600 μM), n = 4)	percent inhibition (percent reduction in Vo) (group IA sPLA2; 40 μM lysoPC, standard buffer (0.25% albumin), n = 8)	Km (group IA sPLA2; lysoPC 10 μM)	Vmax (group IA sPLA2; lysoPC 10 μM)	Km (group IA sPLA2; lysoPC 20 μM)	Vmax (group IA sPLA2; lysoPC 20 μM)	Km (group IA sPLA2; lysoPC 40 μM)	Vmax (group IA sPLA2; lysoPC 40 μM)	inhibition of group IA sPLA2 (group IA sPLA2; 40 μM lysoPC, 30 μM substrate)
CCCCCCCCCCCCCCCC(=O)OC[C@@H](O)COP(=O)([O-])OCC[N+](C)(C)C [Palmitoyl, palmitoyl lysoPC]	significantly lower and narrower	uncompetitive inhibitors	25.9 ± 4 µM	16.1 µM	684.7 nM/min/ml	Uncompetitive inhibition	–	–	–	–	–	–	–	–	–
CCCCCCCCCCCCCCCCCC(=O)OC[C@@H](O)COP(=O)([O-])OCC[N+](C)(C)C [Stearoyl, stearoyl lysoPC]	significantly lower and narrower	uncompetitive inhibitors	34.2 ± 17.4 µM	11.3 µM	669.2 nM/min/ml	Uncompetitive inhibition	29.3 ± 1.6%	63 ± 6%	9.37 µM	221.9 μM/min/ml	5.92 µM	156.2 μM/min/ml	7.31 µM	92.15 μM/min/ml	–
CCCCCCCCCC(=O)OC[C@@H](O)COP(=O)([O-])OCC[N+](C)(C)C [Decanoyl, Decanoyl lysoPC, reference compound]	–	–	–	–	–	–	–	–	–	–	–	–	25 µM	342.4 μM/min/ml	failed to show inhibition
